pEC50, pIC50: −log10 of the molar value.
Columns and labels:
[1] = target: Matrix protein 2 (Influenza A virus (A/Udorn/307/1972(H3N2)), UniProt P0DOF8); assay: Inhibition of Influenza A virus wild type M2 proton channel infected in Xenopus laevis oocytes after 2 mins by TEVC assay; format: cell-based
MDCK = assay: Cytotoxicity against MDCK cells assessed as cell viability after 72 hrs by MTT assay; format: cell-based, Canis lupus familiaris; details: dog
Influenza A virus = assay: Antiviral activity against Influenza A virus A/udorn/72(H3N2) expressing wild type M2 proton channel infected in MDCK cells assessed as reduction in plaque formation preincubated for 30 mins followed by infection measured on day 2 post infection by naphthalene black dye-based assay; format: functional, organism-based, Influenza A virus (A/udorn/1972(H3N2))

Matrix protein 2 (Influenza A virus (A/Udorn/307/1972(H3N2)), UniProt P0DOF8), sequence (P0DOF8 whole entry): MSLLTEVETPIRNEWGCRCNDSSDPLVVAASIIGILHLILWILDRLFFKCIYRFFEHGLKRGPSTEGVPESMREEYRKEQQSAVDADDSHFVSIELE

SMILES	CC50 (MDCK) [µM]	also measured
C1CCC2(CC1)CCNCC2		pIC50 [1]: 6.05
OC1C2CC3CC1CC(NCc1cc(-c4cccs4)on1)(C3)C2 (configuration not stated)	116	
c1csc(-c2cc(NC34CC5CC(CC(C5)C3)C4)no2)c1	100	
c1csc(-c2ncc(CNC34CC5CC(CC(C5)C3)C4)s2)c1	113	
c1csc(-c2nnc(CNC34CC5CC(CC(C5)C3)C4)s2)c1	> 200	
OC12CC3CC(O)(C1)CC(NCc1cc(-c4cccs4)on1)(C3)C2	> 200	
NC12CC3CC(CC(C3)C1)C2 [AMANTADINE]		pEC50 (Influenza A virus): 6.52
